This note sets out measurements from ChEMBL document CHEMBL1201862, “PubChem BioAssay data set” (2004).

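Growth conditions: 96-well plates. Treatment: test compound, 48 hours, 5 concentrations. Analysis: linear interpolation between bracketing concentrations; unreached endpoints set to highest concentration. Here, GI50 denotes the concentration required for 50% inhibition of growth.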 Activity calls are given as the source filed them. Cut-off read from the data, not from the text of the source: active = GI50 up to about 1.1 µM and inactive = higher. A value given as a limit tells only on which side of the number the result lay.

Some test systems named below: SK-MEL-28; HOP-62; NCI-H460; Malme-3M; NCI-H522; SK-MEL-2; UACC-257; HOP-92; OVCAR-3; 786-0; T47D; M14; HL-60; A549; SF-295; HCC 2998; LOX IMVI; RPMI-8226; K562; UO-31.
Holding throughout (experiment): NCI anticancer screen, dose series, 48 h

As for `CC(C)C[C@H]1[C@@H](OCc2ccccc2)COS(=O)(=O)N1[C@H](C)c1ccccc1`, the GI50 was > 100 µM (inactive) in the assay on SK-MEL-28; > 84.1 µM (inactive) in the assay with HOP-62; 11.7 µM (inactive) in the assay with NCI-H460; > 27.2 µM (inactive) in the assay with Malme-3M; 7.83 µM (inactive) in the assay with NCI-H522; 44.6 µM (inactive) in the assay with SK-MEL-2. Also, the GI50 with UACC-257 is 20 µM (inactive); in the assay with HOP-92 it was > 100 µM (inactive); in the assay on OVCAR-3, 20.6 µM (inactive); with 786-0, 23.4 µM (inactive); in the assay on T47D it was 2.9 µM (inactive); in the assay with M14, > 100 µM (inactive). For the same compound, the GI50 with HL-60 was 6.11 µM (inactive); with A549 it was 29.5 µM (inactive); in the assay on SF-295, 9.12 µM (inactive); in the assay on HCC 2998, > 100 µM (inactive); in the assay on LOX IMVI it was 13.4 µM (inactive); in the assay with RPMI-8226, 4.05 µM (inactive). The GI50 in the assay with K562 is 5.24 µM (inactive); in the assay with UO-31, 9.95 µM (inactive).

For the compound `C=C(C)C12CC3CC/C(=N/O)C(C1)C3(N1CCOCC1)C/C2=N/O` (stereo not given), the GI50 with SK-MEL-28, in the assay with HOP-62, with NCI-H460, in the assay with Malme-3M, with NCI-H522 and with SK-MEL-2 was > 100 µM (inactive) in each case. Besides, the GI50 in the assay on UACC-257, in the assay on HOP-92, with OVCAR-3, in the assay on 786-0, with T47D and in the assay on M14 was > 100 µM (inactive) throughout. Besides, the GI50 in the assay on HL-60, with A549, in the assay on SF-295, with HCC 2998, in the assay with LOX IMVI and in the assay with RPMI-8226 was > 100 µM (inactive) in each case. Moreover, the GI50 in the assay with K562 and with UO-31 was > 100 µM (inactive) in each case.

With `O=C1c2ccccc2C(=O)N1C(=S)c1ccccc1`, the GI50 in the assay with SK-MEL-28, in the assay on HOP-62, with NCI-H460, in the assay with Malme-3M, in the assay on NCI-H522 and in the assay on SK-MEL-2 was > 100 µM (inactive) in each case. For the same compound, the GI50 in the assay on UACC-257, in the assay with HOP-92, in the assay with OVCAR-3, with 786-0, in the assay on T47D and with M14 was > 100 µM (inactive) throughout. In addition, the GI50 with HL-60, in the assay with A549, with SF-295, in the assay on HCC 2998, in the assay with LOX IMVI and in the assay on RPMI-8226 was > 100 µM (inactive) throughout. The GI50 in the assay on K562 and in the assay on UO-31 was > 100 µM (inactive) in each case.

`CSC(=N\c1ccccc1)/N=C(\SCc1ccccc1)N(C)C`: the GI50 in the assay on SK-MEL-28 was 0.581 µM (active); with HOP-62, 1.7 µM (inactive); in the assay on NCI-H460, 0.161 µM (active); with Malme-3M, 1.14 µM (inactive); in the assay on NCI-H522, 0.21 µM (active); in the assay with SK-MEL-2, 1.87 µM (inactive). Besides, the GI50 in the assay on UACC-257 is 1.57 µM (inactive); in the assay on HOP-92, 1.4 µM (inactive); in the assay on OVCAR-3, 0.869 µM (active); in the assay with 786-0, 0.531 µM (active); with T47D, 0.427 µM (active); with M14 it was 0.789 µM (active). Moreover, the GI50 in the assay with HL-60 was 0.172 µM (active); in the assay on A549 it was 1.75 µM (inactive); with SF-295, 1.43 µM (inactive); with HCC 2998, 0.359 µM (active); in the assay on LOX IMVI, 0.189 µM (active); in the assay with RPMI-8226, 0.218 µM (active). Also, the GI50 in the assay on K562 was 0.05 µM (active); in the assay on UO-31, 1.46 µM (inactive).
